Assay results taken from PMC5218480 (PLoS ONE, 2017).

Test system: MV-4-11 cells
Assay: Gene expression microarray analysis (Affymetrix PrimeView) and GSEA
Format: cell-based, human
Parameters: RFU PODN (11730768_x_at) / Fold change /veh PODN (11730768_x_at) / RFU LINC00158 (11744669_a_at) / Fold change /veh LINC00158 (11744669_a_at) / RFU DUSP10 (11751237_a_at) / Fold change /veh DUSP10 (11751237_a_at) / RFU ID3 (11757404_x_at) / Fold change /veh ID3 (11757404_x_at) / RFU PLEKHG5 (11737974_s_at) / Fold change /veh PLEKHG5 (11737974_s_at) / RFU LRRC4B (11730491_at) / Fold change /veh LRRC4B (11730491_at) / RFU GIMAP4 (11747438_a_at) / Fold change /veh GIMAP4 (11747438_a_at) / RFU KRT8 (11758183_x_at) / Fold change /veh KRT8 (11758183_x_at) / RFU CNN1 (11734310_a_at) / Fold change /veh CNN1 (11734310_a_at) / RFU VPS37D (11726825_at) / Fold change /veh VPS37D (11726825_at) / RFU C10orf10 (11716522_x_at) / Fold change /veh C10orf10 (11716522_x_at) / RFU KIR2DL2 /// KIR2DL4 /// KIR2DL5A /// KIR2DL5B /// KIR2DS1 /// KIR2DS2 /// KIR2DS3 /// KIR2DS4 /// KIR3DL3 /// KIR3DL3 /// KIR3DS1 (11738374_at) / Fold change /veh KIR2DL2 /// KIR2DL4 /// KIR2DL5A /// KIR2DL5B /// KIR2DS1 /// KIR2DS2 /// KIR2DS3 /// KIR2DS4 /// KIR3DL3 /// KIR3DL3 /// KIR3DS1 (11738374_at) / RFU C1QL1 (11718748_at) / Fold change /veh C1QL1 (11718748_at) / RFU TMPRSS4 (11747572_a_at) / Fold change /veh TMPRSS4 (11747572_a_at) / RFU HAMP (11756126_x_at) / Fold change /veh HAMP (11756126_x_at) / RFU RNFT2 (11725882_a_at) / Fold change /veh RNFT2 (11725882_a_at) / RFU NR4A2 (11747474_a_at) / Fold change /veh NR4A2 (11747474_a_at) / RFU ABCC12 (11746883_a_at) / Fold change /veh ABCC12 (11746883_a_at) / RFU TMEM136 (11760407_x_at) / Fold change /veh TMEM136 (11760407_x_at) / RFU CLDN22 /// WWC2 (11732394_at) / Fold change /veh CLDN22 /// WWC2 (11732394_at) / RFU HLA-DPB1 (11760878_x_at) / Fold change /veh HLA-DPB1 (11760878_x_at) / RFU SPINT1 (11716480_a_at) / Fold change /veh SPINT1 (11716480_a_at) / RFU GAP43 (11754022_s_at) / Fold change /veh GAP43 (11754022_s_at) / RFU A4GNT (11735810_at) / Fold change /veh A4GNT (11735810_at) / RFU PRB3 (11715151_x_at) / Fold change /veh PRB3 (11715151_x_at) / RFU TUBB4B (11761932_at) / Fold change /veh TUBB4B (11761932_at) / RFU CAPN14 (11732068_a_at) / Fold change /veh CAPN14 (11732068_a_at) / RFU TMCC2 (11721928_a_at) / Fold change /veh TMCC2 (11721928_a_at) / RFU IRGQ (11745062_a_at) / Fold change /veh IRGQ (11745062_a_at) / RFU FAM174B (11720279_a_at) / Fold change /veh FAM174B (11720279_a_at) / RFU TMPRSS4 (11748680_a_at) / Fold change /veh TMPRSS4 (11748680_a_at) / RFU FAM212B (11763350_a_at) / Fold change /veh FAM212B (11763350_a_at) / RFU PLEKHG5 (11743358_a_at) / Fold change /veh PLEKHG5 (11743358_a_at) / RFU ZSCAN30 (11745921_a_at) / Fold change /veh ZSCAN30 (11745921_a_at) / RFU CMKLR1 (11741424_a_at) / Fold change /veh CMKLR1 (11741424_a_at) / RFU LOC101060620 /// MAPK8IP1 (11723275_at) / Fold change /veh LOC101060620 /// MAPK8IP1 (11723275_at) / RFU SPTSSB (11747773_x_at) / Fold change /veh SPTSSB (11747773_x_at) / RFU PRSS12 (11739890_at) / Fold change /veh PRSS12 (11739890_at) / RFU BIN1 (11741810_x_at) / Fold change /veh BIN1 (11741810_x_at) / RFU WNT11 (11732464_a_at) / Fold change /veh WNT11 (11732464_a_at) / RFU C10orf10 (11716521_a_at) / Fold change /veh C10orf10 (11716521_a_at) / RFU C5orf56 (11738089_at) / Fold change /veh C5orf56 (11738089_at) / RFU CYB561 (11721691_x_at) / Fold change /veh CYB561 (11721691_x_at) / RFU ANKRD19P (11752326_a_at) / Fold change /veh ANKRD19P (11752326_a_at) / RFU OR2T12 /// OR2T33 /// OR2T8 (11738714_s_at) / Fold change /veh OR2T12 /// OR2T33 /// OR2T8 (11738714_s_at) / RFU VCAN (11748164_a_at) / Fold change /veh VCAN (11748164_a_at) / RFU JSRP1 (11732532_at) / Fold change /veh JSRP1 (11732532_at) / RFU KRTAP10-11 (11738290_x_at) / Fold change /veh KRTAP10-11 (11738290_x_at) / RFU MYO3A (11730013_a_at) / Fold change /veh MYO3A (11730013_a_at) / RFU EBF3 (11725865_a_at) / Fold change /veh EBF3 (11725865_a_at) / RFU CAMK2N1 (11719241_x_at) / Fold change /veh CAMK2N1 (11719241_x_at) / RFU C5orf56 (11738088_a_at) / Fold change /veh C5orf56 (11738088_a_at) / RFU OLFML3 (11715873_a_at) / Fold change /veh OLFML3 (11715873_a_at) / RFU LOC100653217 /// NTM (11731650_a_at) / Fold change /veh LOC100653217 /// NTM (11731650_a_at) / RFU MAPK11 (11762145_a_at) / Fold change /veh MAPK11 (11762145_a_at) / RFU FIZ1 (11724087_x_at) / Fold change /veh FIZ1 (11724087_x_at) / RFU OASL (11726364_x_at) / Fold change /veh OASL (11726364_x_at) / RFU SOX15 (11748057_x_at) / Fold change /veh SOX15 (11748057_x_at) / RFU CD79A (11719716_a_at) / Fold change /veh CD79A (11719716_a_at) / RFU HIST1H1D (11736915_at) / Fold change /veh HIST1H1D (11736915_at) / RFU CASKIN2 (11723855_a_at) / Fold change /veh CASKIN2 (11723855_a_at) / RFU LOC730098 (11760151_x_at) / Fold change /veh LOC730098 (11760151_x_at) / RFU OR4N2 (11742367_at) / Fold change /veh OR4N2 (11742367_at) / RFU PRRT2 (11749266_a_at) / Fold change /veh PRRT2 (11749266_a_at) / RFU SNX32 (11753110_a_at) / Fold change /veh SNX32 (11753110_a_at) / RFU CDHR5 (11726645_a_at) / Fold change /veh CDHR5 (11726645_a_at) / RFU RCAN1 (11760418_a_at) / Fold change /veh RCAN1 (11760418_a_at) / RFU FAM167A (11723789_a_at) / Fold change /veh FAM167A (11723789_a_at) / RFU FAM26E (11764081_at) / Fold change /veh FAM26E (11764081_at) / RFU ISYNA1 (11749810_s_at) / Fold change /veh ISYNA1 (11749810_s_at) / RFU ACY1 (11761880_at) / Fold change /veh ACY1 (11761880_at) / RFU 11764098_at / Fold change /veh 11764098_at / RFU SAMD14 (11745864_x_at) / Fold change /veh SAMD14 (11745864_x_at) / RFU NPB (11741838_a_at) / Fold change /veh NPB (11741838_a_at) / RFU TMPRSS6 (11731388_a_at) / Fold change /veh TMPRSS6 (11731388_a_at) / RFU KRTAP10-2 (11738614_at) / Fold change /veh KRTAP10-2 (11738614_at) / RFU ARHGAP8 /// PRR5-ARHGAP8 (11727945_x_at) / Fold change /veh ARHGAP8 /// PRR5-ARHGAP8 (11727945_x_at) / RFU KRTAP5-7 /// NADSYN1 (11734609_at) / Fold change /veh KRTAP5-7 /// NADSYN1 (11734609_at) / RFU RASL12 (11751679_a_at) / Fold change /veh RASL12 (11751679_a_at) / RFU CDKN2B (11736163_a_at) / Fold change /veh CDKN2B (11736163_a_at) / RFU PRF1 (11729649_at) / Fold change /veh PRF1 (11729649_at) / RFU, ZNF638 /// ZNF638-IT1 / Fold change vs veh, ZNF638 /// ZNF638-IT1 / RFU, PANK3 / Fold change vs veh, PANK3 / RFU, SH3YL1 / Fold change vs veh, SH3YL1 / RFU, ZEB2 / Fold change vs veh, ZEB2 / RFU, NRIP1 / Fold change vs veh, NRIP1 / RFU, PTTG1IP / Fold change vs veh, PTTG1IP / RFU, CAPN2 / Fold change vs veh, CAPN2 / RFU, MED14 / Fold change vs veh, MED14 / RFU, SNORA58 / Fold change vs veh, SNORA58 / RFU, C1orf63 / Fold change vs veh, C1orf63 / RFU, LRRFIP1 / Fold change vs veh, LRRFIP1 / RFU, NDUFAF7 / Fold change vs veh, NDUFAF7 / RFU, SLC12A2 / Fold change vs veh, SLC12A2 / RFU, IBTK / Fold change vs veh, IBTK / RFU, ESF1 / Fold change vs veh, ESF1 / Fold change vs veh, TMEM50B / RFU, TAOK1 / Fold change vs veh, TAOK1 / RFU, ACBD3 / Fold change vs veh, ACBD3 / RFU, TMA16 / Fold change vs veh, TMA16 / RFU, RWDD3 / Fold change vs veh, RWDD3 / RFU, BCAT1 / Fold change vs veh, BCAT1 / RFU, EDEM3 / Fold change vs veh, EDEM3 / RFU, TMEM33 / Fold change vs veh, TMEM33 / RFU, WDR75 / Fold change vs veh, WDR75 / RFU, AHCTF1 / Fold change vs veh, AHCTF1 / RFU, TFRC / Fold change vs veh, TFRC / RFU, ZDHHC17 / Fold change vs veh, ZDHHC17 / RFU, NOM1 / Fold change vs veh, NOM1 / RFU, ARL8B / Fold change vs veh, ARL8B / RFU, ZBTB11 / Fold change vs veh, ZBTB11 / RFU, TAMM41 / Fold change vs veh, TAMM41 / RFU, KIAA1704 /// LOC100996395 / Fold change vs veh, KIAA1704 /// LOC100996395 / RFU, ING1 / Fold change vs veh, ING1 / RFU, TRMT61B / Fold change vs veh, TRMT61B / RFU, FUBP3 / Fold change vs veh, FUBP3 / RFU, TP53 / Fold change vs veh, TP53 / RFU, TNKS2 / Fold change vs veh, TNKS2 / RFU, ZFP14 / Fold change vs veh, ZFP14 / RFU, ACTR2 / Fold change vs veh, ACTR2 / RFU, PPP3R1 / Fold change vs veh, PPP3R1 / RFU, PIK3R1 / Fold change vs veh, PIK3R1 / RFU, HNRNPA1 / Fold change vs veh, HNRNPA1 / RFU, RNF170 / Fold change vs veh, RNF170 / RFU, ZNF28 / Fold change vs veh, ZNF28 / RFU, RNGTT / Fold change vs veh, RNGTT / RFU, OGT / Fold change vs veh, OGT / RFU, BRD1 / Fold change vs veh, BRD1 / RFU, MARS / Fold change vs veh, MARS / RFU, ZNF655 / Fold change vs veh, ZNF655 / RFU, FAHD1 / Fold change vs veh, FAHD1 / RFU, BDP1 / Fold change vs veh, BDP1 / RFU, LRRCC1 / Fold change vs veh, LRRCC1 / RFU, ARID1A / Fold change vs veh, ARID1A / RFU, ZNF146 / Fold change vs veh, ZNF146 / RFU, ZNF330 / Fold change vs veh, ZNF330 / RFU, GPN3 / Fold change vs veh, GPN3 / RFU, C9orf123 / Fold change vs veh, C9orf123 / RFU, N4BP2L2 / Fold change vs veh, N4BP2L2 / RFU, ARFIP1 / Fold change vs veh, ARFIP1 / RFU, FAM179B / Fold change vs veh, FAM179B / RFU, BCL10 / Fold change vs veh, BCL10 / RFU, UHRF1BP1L / Fold change vs veh, UHRF1BP1L / RFU, BET1 / Fold change vs veh, BET1 / RFU, CNOT2 / Fold change vs veh, CNOT2 / RFU, ZNF268 / Fold change vs veh, ZNF268 / Fold change vs veh, ZNF507 / RFU, DGCR2 / Fold change vs veh, DGCR2 / RFU, WDSUB1 / Fold change vs veh, WDSUB1 / Fold change vs veh, HSP90B1 /// MIR3652 / RFU, ADSS / Fold change vs veh, ADSS / RFU, GK / Fold change vs veh, GK / RFU, ZNF148 / Fold change vs veh, ZNF148 / RFU, TAF9 / Fold change vs veh, TAF9 / RFU, SLC1A5 / Fold change vs veh, SLC1A5 / RFU, SLMO2 / Fold change vs veh, SLMO2 / RFU, ABCC4 / Fold change vs veh, ABCC4 / RFU, LOC101060439 /// RAP1B / Fold change vs veh, LOC101060439 /// RAP1B / RFU, RFX7 / Fold change vs veh, RFX7 / RFU, GTPBP10 / Fold change vs veh, GTPBP10 / RFU, CNEP1R1 / Fold change vs veh, CNEP1R1 / RFU, BIVM-ERCC5 /// ERCC5 / Fold change vs veh, BIVM-ERCC5 /// ERCC5 / RFU, ILF3 / Fold change vs veh, ILF3 / RFU 11762660_at / Fold change /veh 11762660_at / RFU VCAN (11757783_s_at) / Fold change /veh VCAN (11757783_s_at) / RFU DDX43 (11728927_at) / Fold change /veh DDX43 (11728927_at) / RFU KRT8 (11758188_x_at) / Fold change /veh KRT8 (11758188_x_at) / RFU NKD1 (11759106_at) / Fold change /veh NKD1 (11759106_at) / RFU SRD5A1 (11742802_a_at) / Fold change /veh SRD5A1 (11742802_a_at) / RFU TPSAB1 /// TPSB2 (11721975_s_at) / Fold change /veh TPSAB1 /// TPSB2 (11721975_s_at) / RFU GSTM3 (11746129_a_at) / Fold change /veh GSTM3 (11746129_a_at) / RFU IL23R (11737362_x_at) / Fold change /veh IL23R (11737362_x_at) / RFU TMEM51 (11727254_a_at) / Fold change /veh TMEM51 (11727254_a_at) / RFU PIWIL2 (11732686_x_at) / Fold change /veh PIWIL2 (11732686_x_at) / RFU ORM1 (11744905_x_at) / Fold change /veh ORM1 (11744905_x_at) / RFU CCDC152 (11743942_at) / Fold change /veh CCDC152 (11743942_at) / RFU ECM1 (11717891_a_at) / Fold change /veh ECM1 (11717891_a_at) / RFU IL23R (11748794_a_at) / Fold change /veh IL23R (11748794_a_at) / RFU TNFAIP8L3 (11732012_x_at) / Fold change /veh TNFAIP8L3 (11732012_x_at) / RFU MBOAT4 (11741988_at) / Fold change /veh MBOAT4 (11741988_at) / RFU 11764193_at / Fold change /veh 11764193_at / RFU TMEM53 (11763286_at) / Fold change /veh TMEM53 (11763286_at) / RFU MAGEB2 (11727129_at) / Fold change /veh MAGEB2 (11727129_at) / RFU TMEM200A (11744735_a_at) / Fold change /veh TMEM200A (11744735_a_at) / RFU CCDC152 (11751479_a_at) / Fold change /veh CCDC152 (11751479_a_at) / RFU FAM211A (11726209_a_at) / Fold change /veh FAM211A (11726209_a_at) / RFU RGS16 (11746705_a_at) / Fold change /veh RGS16 (11746705_a_at) / RFU VCAN (11755009_s_at) / Fold change /veh VCAN (11755009_s_at) / RFU RHOB (11743442_s_at) / Fold change /veh RHOB (11743442_s_at) / RFU RGS16 (11720943_a_at) / Fold change /veh RGS16 (11720943_a_at) / RFU RGS16 (11720944_at) / Fold change /veh RGS16 (11720944_at) / RFU, VPS4B / Fold change vs veh, VPS4B / RFU, CREB1 / Fold change vs veh, CREB1 / RFU, DNAJC13 / Fold change vs veh, DNAJC13 / RFU, GNAQ / Fold change vs veh, GNAQ / RFU, CDK5R1 / Fold change vs veh, CDK5R1 / RFU, ZRANB3 / Fold change vs veh, ZRANB3 / RFU, CUL4A / Fold change vs veh, CUL4A / RFU, CCNY / Fold change vs veh, CCNY / RFU, UFL1 / Fold change vs veh, UFL1 / RFU, COG3 / Fold change vs veh, COG3 / RFU, DIAPH2 / Fold change vs veh, DIAPH2 / RFU, SKA2 / Fold change vs veh, SKA2 / RFU, AFF3 / Fold change vs veh, AFF3 / RFU, LMF1 / Fold change vs veh, LMF1 / RFU, IPO11 / Fold change vs veh, IPO11 / RFU, DFFB / Fold change vs veh, DFFB / RFU, FOXP1 / Fold change vs veh, FOXP1 / RFU, CARD8 / Fold change vs veh, CARD8 / RFU, STRN3 / Fold change vs veh, STRN3 / RFU, ADK / Fold change vs veh, ADK / RFU, RASSF2 / Fold change vs veh, RASSF2 / RFU, WIPF1 / Fold change vs veh, WIPF1 / RFU, LARP1B / Fold change vs veh, LARP1B / RFU, RASA1 / Fold change vs veh, RASA1 / RFU, RB1 / Fold change vs veh, RB1 / RFU, PPFIA1 / Fold change vs veh, PPFIA1 / RFU, MAT2A / Fold change vs veh, MAT2A / RFU, CCT5 / Fold change vs veh, CCT5 / RFU, WDR92 / Fold change vs veh, WDR92 / RFU, CUX1 / Fold change vs veh, CUX1 / RFU, TTC7A / Fold change vs veh, TTC7A / RFU, TMEM135 / Fold change vs veh, TMEM135 / RFU, DEPTOR / Fold change vs veh, DEPTOR / RFU, CPM / Fold change vs veh, CPM / RFU, DNAJB6 / Fold change vs veh, DNAJB6 / RFU, CACNA2D3 / Fold change vs veh, CACNA2D3 / RFU, DTX4 / Fold change vs veh, DTX4 / RFU, TFCP2 / Fold change vs veh, TFCP2 / RFU, GMCL1 /// GMCL1P1 / Fold change vs veh, GMCL1 /// GMCL1P1 / RFU, AEBP2 / Fold change vs veh, AEBP2 / RFU, SNHG1 /// SNORD22 /// SNORD25 /// SNORD26 /// SNORD27 /// SNORD28 /// SNORD29 /// SNORD31 / Fold change vs veh, SNHG1 /// SNORD22 /// SNORD25 /// SNORD26 /// SNORD27 /// SNORD28 /// SNORD29 /// SNORD31 / Fold change (Aza/veh), C12orf56 (ProbeSet 11735607_a_at) / Fold change (ACY-1035/veh), C12orf56 (ProbeSet 11735607_a_at) / Fold change (Aza/veh), FGFR1OP (ProbeSet 11751329_s_at) / Fold change (ACY-1035/veh), FGFR1OP (ProbeSet 11751329_s_at) / Fold change (Aza/veh), VPS36 (ProbeSet 11739960_a_at) / Fold change (ACY-1035/veh), VPS36 (ProbeSet 11739960_a_at) / RFU SYPL1 (11715823_x_at) / Fold change /veh SYPL1 (11715823_x_at) / RFU IGFBP7 (11715501_s_at) / Fold change /veh IGFBP7 (11715501_s_at) / RFU REEP3 (11722064_at) / Fold change /veh REEP3 (11722064_at) / RFU IGLL1 (11728026_x_at) / Fold change /veh IGLL1 (11728026_x_at): dose or concentration left out as unconfirmed
Settings: MV-4-11 cells, 48 hours

Structure (SMILES): Nc1ncn([C@@H]2O[C@H](CO)[C@@H](O)[C@H]2O)c(=O)n1 [azacitidine]
- Fold change /veh VPS37D (11726825_at): 1.12
